Data: US8609643B2, “2-methylene-(20S,25R)-19,26-dinor-vitamin D analogs” (Wisconsin Alumni Research Foundation, priority 2007, dated 2013)

What was measured:
[1] = system: 24-hydroxylase (24Ohase) gene promoter; assay: In vitro transcription assay, luciferase reporter in ROS 17/2.8 (bone) cells; type: cell-based; settings: ROS 17/2.8 cells, 24Ohase promoter-luciferase; FIG. 3; read-out: EC50, transcriptional activity in bone cells (24-hydroxylase gene)
Experimental: Transcription activity was measured in ROS 17/2.8 (bone) cells that were stably transfected with a 24-hydroxylase (24Ohase) gene promoter upstream of a luciferase reporter gene (Arbour et al., 1998). Cells were given a range of doses. Sixteen hours after dosing the cells were harvested and luciferase activities were measured using a luminometer.
RLU=relative luciferase units.

[2] = Bone calcium mobilization (serum calcium) in vitamin D-deficient rats; type: in vivo, Sprague-Dawley rats; settings: ip
Experimental: (§1) Male, weanling Sprague-Dawley rats were placed on Diet 11 (0.47% Ca) diet+AEK oil for one week followed by Diet 11 (0.02% Ca)+AEK oil for 3 weeks. The rats were then switched to a diet containing 0.47% Ca for one week followed by two weeks on a diet containing 0.02% Ca. Dose administration began during the last week on 0.02% calcium diet. Four consecutive ip doses were given approximately 24 hours apart. Twenty-four hours after the last dose, blood was collected from the severed neck and the concentration of serum calcium determined as a measure of bone calcium mobilization. The first 10 cm of the intestine was also collected for intestinal calcium transport analysis using the everted gut sac method.

[3] = Intestinal calcium transport, everted gut sac method, vitamin D-deficient rats; type: in vivo, Sprague-Dawley rats; settings: ip, FIGS. 5A and 5B
Experimental: as §1

HL-60 cells = assay: HL-60 cell differentiation (nitro blue tetrazolium reduction); type: cell-based, Human; settings: for EC50: HL-60 differentiation into monocytes, FIG. 2
Experimental: The study drugs were dissolved in ethanol and the concentrations determined using UV spectrophotometry. Serial dilutions were prepared so that a range of drug concentrations could be tested without changing the final concentration of ethanol (≦0.2%) present in the cell cultures.
Human promyelocytic leukemia (HL60) cells were grown in RPMI-1640 medium containing 10% fetal bovine serum. The cells were incubated at 37° C. in the presence of 5% CO2.
HL60 cells were plated at 1.2×10^5 cells/ml. Eighteen hours after plating, cells in duplicate were treated with drug. Four days later, the cells were harvested and a nitro blue tetrazolium reduction assay was performed (Collins et al., 1979; J. Exp. Med. 149:969-974). The percentage of differentiated cells was determined by counting a total of 200 cells and recording the number that contained intracellular black-blue formazan deposits. Verification of differentiation to monocytic cells was determined by measuring phagocytic activity (data not shown).

EC50 (HL-60 cells; Homo sapiens) | Structure (SMILES) | EC50 [1] | serum calcium levels (bone calcium mobilization) ([2]; all dosages, rats on 0.02% Ca diet, FIGS. 4A and 4B) | intestinal calcium transport ([3]; 260 pmol/day) | EC50 (HL-60 cells) | bone calcium mobilization (serum calcium) ([2]; 260 pmol/day for 4 consecutive days, rats on 0.02% Ca diet) | bone calcium mobilization (serum calcium) ([2]; 7020 pmol/day, rats on 0.02% Ca diet) | potency in mobilizing bone calcium relative to the native hormone (times less potent) ([2]; versus 1,25(OH)2D3, rats) | intestinal calcium transport ([3]; 7020 pmol/day) | potency on HL-60 cell differentiation relative to 1,25(OH)2D3 (times more potent) (HL-60 cells; versus 1,25(OH)2D3)
 | C=C1/C(=C\C=C2/CCC[C@]3(C)[C@@H]([C@H](C)CCCC(C)(C)O)CC[C@@H]23)C[C@@H](O)C[C@@H]1O [1,25(OH)2D3, 1α,25-dihydroxyvitamin D3, reference compound] | 0.2 nM | increased serum calcium levels at all dosages | promotes a significant increase | 2 nM |  |  |  |  | 
0.1 nM | C=C1[C@H](O)CC(=C/C=C2\CCC[C@@]3(C)C2CC[C@@H]3[C@@H](C)CCC[C@@H](C)O)C[C@H]1O (stereo partly drawn) [SR1, 2-methylene-(20S,25R)-19,26-dinor-1α,25-dihydroxyvitamin D3] | 0.01 nM |  | promotes intestinal calcium transport only slightly |  | did not result in mobilization of bone calcium | without any substantial effect | approximately 30 times | significant intestinal calcium transport activity was recorded | about 10 times
